Tests used:
Format in all cases: functional, T cell line
[1] = Induction of anti-CD3/CD28 antibodies-stimulated human T cell activation at 4 uM assessed fold increase in IL-2 secretion measured by ELISA assay
[2] = Induction of anti-CD3/CD28 antibodies-stimulated human T cell activation at 1 uM assessed fold increase in IL-2 secretion measured by ELISA assay
[3] = Induction of anti-CD3/CD28 antibodies-stimulated human T cell activation at 0.3 uM assessed fold increase in IL-2 secretion measured by ELISA assay
[4] = Induction of anti-CD3 antibodies-stimulated human T cell activation at 8 uM assessed fold increase in IL-2 secretion measured by ELISA assay; note: reference of the scale not given here
[5] = Induction of anti-CD3 antibodies-stimulated human T cell activation at 1 uM assessed fold increase in IL-2 secretion measured by ELISA assay; note: reference of the scale not given here
[6] = Induction of anti-CD3/CD28 antibodies-stimulated human T cell activation at 4 uM assessed fold increase in CD25 expression measured by ELISA assay
[7] = Induction of anti-CD3/CD28 antibodies-stimulated human T cell activation at 1 uM assessed fold increase in CD25 expression measured by ELISA assay
[8] = Induction of anti-CD3/CD28 antibodies-stimulated human T cell activation at 0.3 uM assessed fold increase in CD25 expression measured by ELISA assay
[9] = Induction of anti-CD3 antibodies-stimulated human T cell activation at 8 uM assessed fold increase in CD25 expression measured by ELISA assay; note: reference of the scale not given here
[10] = Induction of anti-CD3 antibodies-stimulated human T cell activation at 1 uM assessed fold increase in CD25 expression measured by ELISA assay; note: reference of the scale not given here

| Compound | fold change (FC) [1] | fold change (FC) [2] | fold change (FC) [3] | fold change (FC) [4] | fold change (FC) [5] | fold change (FC) [6] | fold change (FC) [7] | fold change (FC) [8] | fold change (FC) [9] | fold change (FC) [10] |
| --- | --- | --- | --- | --- | --- | --- | --- | --- | --- | --- |
| C[C@H](Cc1nocc1C(F)(F)F)c1cccc(N2Cc3c(cc(C(=O)N4CC[C@H](O)C4)cc3C(F)(F)F)C2=O)c1 | 2.51 | 1.01 | 1.01 | >=0.201 | 0.051 | 1.31 | 1.01 | 1.01 | >=1.001 | 0.601 |
| Cc1conc1CC(C)c1cccc(N2Cc3c(cccc3C(F)(F)F)C2=O)c1 (stereo not given) | 1.01 | 1.01 | 1.01 | 0.051 | <=0.05 | 1.01 | 1.01 | 1.01 | 0.801 | 0.601 |
| C[C@H](Cc1nncn1C)c1cccc(NC(=O)c2cc(C(F)(F)F)n[nH]2)c1 | 1.01 | 1.01 | 1.01 | 0.101 | 0.051 | 1.01 | 1.01 | 1.01 | 0.601 | 0.601 |
| C[C@H](Cc1nncn1C)c1cccc(NC(=O)c2cc(C(C)(C)O)c(Cl)cn2)c1 | 5 | 1.01 | 2.51 | 0.101 | 0.051 | >=1.76 | 1.31 | 1.01 | <=0.6 | <=0.6 |
| Cn1cnnc1[C@@H](F)[C@](C)(F)c1cccc(N2Cc3c(cccc3C(F)(F)F)C2=O)c1 (single isomer, unassigned) | 1.01 | 1.01 | 1.01 | 0.051 | <=0.05 | 1.01 | 1.01 | 1.01 | 0.601 | <=0.6 |
| C[C@H](Cc1nncn1C)c1cccc(NC(=O)c2cc3cccn3cn2)c1 | 1.01 | 1.01 | 1.01 | 0.101 | 0.051 | 1.01 | 1.01 | 1.01 | 0.801 | 0.601 |
| C[C@H](Sc1nncn1C)c1ccnc(NC(=O)c2cc(Cl)cc(C(F)(F)F)n2)c1 | <=1 | 1.01 | 1.01 | <=0.05 | <=0.05 | <=1 | 1.01 | 1.01 | 0.601 | <=0.6 |
| C[C@H](Cc1nncn1C)c1ccnc(N2Cc3c(cccc3C(F)(F)F)C2=O)c1 | 1.01 | <=1 | <=1 | <=0.05 | <=0.05 | 1.31 | 1.01 | 1.01 | <=0.6 | <=0.6 |
| C[C@H](Sc1nncn1C)c1cccc(NC(=O)c2ccc(Cl)c(C(F)(F)F)n2)c1 | 1.01 | <=1 | <=1 | <=0.05 | <=0.05 | 1.01 | 1.01 | 1.01 | >=1.001 | 0.801 |
| Cn1cnnc1CC1(c2cccc(NC(=O)c3ccnc(C(F)(F)F)n3)c2)COC1 | 2.51 | 2.51 | 1.01 | 0.151 | 0.051 | 1.01 | 1.01 | 1.01 | >=1.001 | 0.601 |
| C[C@H](Cc1nncn1C)c1cccc(NC(=O)c2ccn3nccc3n2)c1 | 2.51 | 1.01 | 1.01 | 0.151 | 0.051 | 1.01 | 1.01 | 1.01 | >=1.001 | 0.601 |
| Cc1cc(C(=O)Nc2cc([C@H](C)Sc3nncn3C)ccn2)nc(C(F)(F)F)c1 | 1.01 | 1.01 | 1.01 | 0.051 | <=0.05 | 1.01 | <=1 | <=1 | 0.801 | <=0.6 |
| Cc1ccc(C(=O)Nc2cccc(C(C)C(F)(F)c3nncn3C)c2)nc1C1CC1 (stereo not given) | 2.51 | 1.01 | 1.01 | 0.101 | 0.051 | 1.01 | <=1 | <=1 | >=1.001 | 0.801 |
| C[C@H](Sc1nncn1C)c1cccc(NC(=O)c2cc(C(F)(F)F)cc(C3CC3)n2)c1 | 1.01 | <=1 | <=1 | <=0.05 | <=0.05 | 1.31 | 1.01 | 1.01 | <=0.6 | <=0.6 |
| C[C@H](Sc1nncn1C)c1ccnc(NC(=O)c2cc3c(C(F)(F)F)cccc3[nH]2)c1 | 1.01 | 1.01 | 1.01 | <=0.05 | <=0.05 | <=1 | <=1 | <=1 | <=0.6 | <=0.6 |
| Cn1cnnc1[C@H](F)[C@](C)(F)c1cccc(N2Cc3c(cc(C4CC4)cc3C(F)(F)F)C2=O)c1 | 2.51 | 1.01 | <=1 | 0.101 | 0.051 | 1.01 | 1.01 | 1.01 | >=1.001 | 0.801 |
| Cn1cnnc1C[C@]1(c2cccc(N3Cc4c(cccc4C(F)(F)F)C3=O)c2)C[C@H](CO)C1 | 5 | 2.51 | 1.01 | >=0.201 | 0.101 | 1.51 | 1.51 | 1.31 | >=1.001 | 0.801 |
